For the assay, the target named is Aminopeptidase N (APN, CD13) (Homo sapiens, UniProt P15144). In words: APN enzyme inhibitory assay, supernatant of K562-CD13 cells as enzyme source, L-leucine-p-nitro anilide substrate.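 As to all read-outs here: substrate L-leucine-p-nitro anilide used at 1.6 mM, with enzyme from sonicated APN-overexpressing K562 cell lysate supernatant, run in 96-well plates.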 Particulars: for inhibition at 30 µM: read-out: Inhibitory rate (%).

The results in this text go back to paper PMC9168271, “Discovery of Novel Tetrahydro-β-carboline Containing Aminopeptidase N Inhibitors as Cancer Chemosensitizers” (Frontiers in Oncology, 2022).

Like-named read-outs stand apart in the source and are kept apart here.

Sequence of Aminopeptidase N (APN, CD13) (P15144 whole entry): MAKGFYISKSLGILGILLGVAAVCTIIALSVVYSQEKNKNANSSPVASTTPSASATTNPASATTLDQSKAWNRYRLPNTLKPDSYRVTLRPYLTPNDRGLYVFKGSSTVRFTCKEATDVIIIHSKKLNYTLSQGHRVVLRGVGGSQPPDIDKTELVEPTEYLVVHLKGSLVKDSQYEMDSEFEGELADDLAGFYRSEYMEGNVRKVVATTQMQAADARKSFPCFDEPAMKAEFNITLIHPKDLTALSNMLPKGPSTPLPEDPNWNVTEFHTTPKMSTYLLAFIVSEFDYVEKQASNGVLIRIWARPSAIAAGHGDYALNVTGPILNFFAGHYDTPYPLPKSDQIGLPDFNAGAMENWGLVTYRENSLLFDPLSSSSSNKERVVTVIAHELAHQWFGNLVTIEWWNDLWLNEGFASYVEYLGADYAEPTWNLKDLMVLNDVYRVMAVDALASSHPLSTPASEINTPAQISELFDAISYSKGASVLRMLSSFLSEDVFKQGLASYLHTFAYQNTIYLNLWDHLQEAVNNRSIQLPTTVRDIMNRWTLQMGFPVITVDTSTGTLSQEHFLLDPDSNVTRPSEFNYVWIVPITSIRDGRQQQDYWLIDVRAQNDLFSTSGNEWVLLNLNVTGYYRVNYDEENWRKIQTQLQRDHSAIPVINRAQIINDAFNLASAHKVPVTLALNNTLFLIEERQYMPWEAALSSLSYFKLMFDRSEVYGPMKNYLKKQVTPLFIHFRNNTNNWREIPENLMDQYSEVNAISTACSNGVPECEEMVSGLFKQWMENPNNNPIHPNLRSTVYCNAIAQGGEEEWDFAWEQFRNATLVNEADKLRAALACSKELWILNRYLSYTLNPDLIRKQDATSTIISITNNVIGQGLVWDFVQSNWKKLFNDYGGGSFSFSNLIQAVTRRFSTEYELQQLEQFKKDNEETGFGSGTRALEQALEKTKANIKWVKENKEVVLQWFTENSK
Experimental: In the enzyme inhibitory assay, K562-CD13 monoclonal cells were used as APN enzyme source as described in our previous work ([27]).
K562 cells with overexpression of APN were added into PBS for ultrasonic crushing, centrifuged for 10 minutes, and supernatant was taken as enzyme source and added into 96-well plate. Different concentrations of compounds were added subsequently, and 1.6 mM L-leucine-p-nitro anilide was used as substrate. After 30 minutes of reaction, the APN enzyme activity was measured at 405 nm absorbance. The inhibition rate of APN activity was analyzed by the formula (Od control OD tested)/Od control 100%.

Consider `CCc1ccc(C(=O)N2CCc3c(n(CC(=O)NO)c4ccccc34)C2)cc1` [Compound D18, 2-(2-(4-ethylbenzoyl)-1,2,3,4-tetrahydro-9H-pyrido[3,4-b]indol-9-yl)-N-hydroxyacetamide], for which the inhibition at 30 µM came to 53.2 ± 2.08%.

On to `Cc1ccccc1C(=O)N1CCc2c(n(Cc3ccc(C(=O)NO)cc3)c3ccccc23)C1` [Compound D17, N-hydroxy-4-((2-(2-methylbenzoyl)-1,2,3,4-tetrahydro-9H-pyrido[3,4-b]indol-9-yl)methyl)benzamide], for which the inhibition at 30 µM turned out to be 23.6 ± 4.51%. Regarding `O=C(Cn1c2c(c3ccccc31)CCN(C(=O)c1cccc(Br)c1)C2)NO` [Compound D21, 2-(2-(3-bromobenzoyl)-1,2,3,4-tetrahydro-9H-pyrido[3,4-b]indol-9-yl)-N-hydroxyacetamide], the IC50 is 7.82 ± 1.05 µM and the inhibition at 30 µM was 78.2 ± 5.43%. Taken in the same sequence, the figures for `O=C(Cn1c2c(c3ccccc31)CCN(C(=O)c1cc(F)cc(F)c1)C2)NO` [Compound D24, 2-(2-(3,5-difluorobenzoyl)-1,2,3,4-tetrahydro-9H-pyrido[3,4-b]indol-9-yl)-N-hydroxyacetamide] were 7.13 ± 0.13 µM and 71.3 ± 4.25%. For the compound `COc1ccccc1C(=O)N1CCc2c(n(CC(=O)NO)c3ccccc23)C1` [Compound D8, N-hydroxy-2-(2-(2-methoxybenzoyl)-1,2,3,4-tetrahydro-9H-pyrido[3,4-b]indol-9-yl) acetamide], the “Inhibitory rate (%)” value (compound at 30 µM, mean of at least three experiments) is reported as 56.7±0.42%. This compound also gave a concentration for half-maximal inhibition (IC50) (mean of at least three experiments) of 25 ± 3.32 µM. Regarding `O=C(NO)c1ccc(Cn2c3c(c4ccccc42)CCN(C(=O)c2ccccc2)C3)cc1` [Compound D4, 4-((2-benzoyl-1,2,3,4-tetrahydro-9H-pyrido[3,4-b]indol-9-yl)methyl)-N-hydroxybenzamide], the inhibition at 30 µM amounted to 19.4 ± 4.53%.

Turning to `COc1ccc(C(=O)N2CCc3c(n(Cc4ccc(C(=O)NO)cc4)c4ccccc34)C2)cc1` [Compound D9, N-hydroxy-4-((2-(4-methoxybenzoyl)-1,2,3,4-tetrahydro-9H-pyrido[3,4-b]indol-9-yl)methyl)benzamide], the inhibition at 30 µM was 24 ± 0.25%. In the case of `O=C(Cn1c2c(c3ccccc31)CCN(C(=O)c1ccccc1C(F)(F)F)C2)NO` [Compound D5, N-hydroxy-2-(2-(2-(trifluoromethyl)benzoyl)-1,2,3,4-tetrahydro-9H-pyrido[3,4-b]indol-9-yl)acetamide], it took 14.9 ± 1.03 µM to reach half-maximal inhibition (IC50) and the inhibition at 30 µM stood at 62.9 ± 8.72%.

Regarding `CCCc1ccc(C(=O)N2CCc3c(n(CC(=O)NO)c4ccccc34)C2)cc1` [Compound D26, N-hydroxy-2-(2-(4-propylbenzoyl)-1,2,3,4-tetrahydro-9H-pyrido[3,4-b]indol-9-yl)acetamide], the inhibition at 30 µM worked out at 53.1 ± 7.31%. For `O=C(NO)c1ccc(Cn2c3c(c4ccccc42)CCN(C(=O)c2ccccc2Cl)C3)cc1` [Compound D20, 4-((2-(2-chlorobenzoyl)-1,2,3,4-tetrahydro-9H-pyrido[3,4-b]indol-9-yl)methyl)-N-hydroxybenzamide], the inhibition at 30 µM is 19.1 ± 4.17%.

With `O=C(NO)c1ccc(Cn2c3c(c4ccccc42)CCN(C(=O)c2cc(F)cc(F)c2)C3)cc1` [Compound D25, 4-((2-(3,5-difluorobenzoyl)-1,2,3,4-tetrahydro-9H-pyrido[3,4-b]indol-9-yl)methyl)-N-hydroxybenzamide], the inhibition at 30 µM was 27.9 ± 5.85%.

For `O=C(Cn1c2c(c3ccccc31)CCN(C(=O)c1cc(F)ccc1F)C2)NO` [Compound D28, 2-(2-(2,5-difluorobenzoyl)-1,2,3,4-tetrahydro-9H-pyrido[3,4-b]indol-9-yl)-N-hydroxyacetamide], half-maximal inhibition (IC50) was put at 4.85 ± 0.55 µM and the inhibition at 30 µM is 78 ± 3.95%. Take `O=C(NO)c1ccc(Cn2c3c(c4ccccc42)CCN(C(=O)c2ccc(C(F)(F)F)cc2)C3)cc1` [Compound D2, N-hydroxy-4-((2-(4-(trifluoromethyl)benzoyl)-1,2,3,4-tetrahydro-9H-pyrido[3,4-b]indol-9-yl)methyl)benzamide]: the inhibition at 30 µM stood at 13.3 ± 3.25%.

For orientation: IC50 means the midpoint of a concentration-inhibition curve. A higher IC50 goes with weaker potency in that assay.
